Where a name gives a salt, the structure may show the parent alone.
Experiments:
[1] = biological target: human activated kallikrein enzyme (Homo sapiens, UniProt P03952); assay: Inhibition of human activated plasma kallikrein, fluorogenic PFR-AMC substrate, 500 pM enzyme format; format: biochemical; conditions: 500 pM activated kallikrein; 300 μM PFR-AMC; 30 min preincubation; 10 min room temperature; pH 7.5; read-out: Primary Dose Response Assay: Average EC50
Summary of the method: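 Using fluorogenic PFR-AMC at 300 μM, cleavage by 500 pM human activated kallikrein ran 10 min at room temperature, read at 460 nm emission (380 nm excitation). Enzyme and compounds were first preincubated 30 min in 20 mM Tris pH 7.5, 150 mM NaCl, 1 mM EDTA, 0.1% PEG-400, 0.1% Triton X-100.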

plasma kallikrein = biological target: T1, plasma kallikrein (Homo sapiens, UniProt P03952); assay: Neat Human Plasma Assay (Fluorogenic Peptide), contact pathway-activated (FXIIa) plasma; format: biochemical; conditions: human citrated plasma 78% final; 10 nM human FXIIa; PFR-AMC substrate; 5 minutes; room temperature
T1 construct: PFR-AMC substrate
T1 sequence (P03952 20-638): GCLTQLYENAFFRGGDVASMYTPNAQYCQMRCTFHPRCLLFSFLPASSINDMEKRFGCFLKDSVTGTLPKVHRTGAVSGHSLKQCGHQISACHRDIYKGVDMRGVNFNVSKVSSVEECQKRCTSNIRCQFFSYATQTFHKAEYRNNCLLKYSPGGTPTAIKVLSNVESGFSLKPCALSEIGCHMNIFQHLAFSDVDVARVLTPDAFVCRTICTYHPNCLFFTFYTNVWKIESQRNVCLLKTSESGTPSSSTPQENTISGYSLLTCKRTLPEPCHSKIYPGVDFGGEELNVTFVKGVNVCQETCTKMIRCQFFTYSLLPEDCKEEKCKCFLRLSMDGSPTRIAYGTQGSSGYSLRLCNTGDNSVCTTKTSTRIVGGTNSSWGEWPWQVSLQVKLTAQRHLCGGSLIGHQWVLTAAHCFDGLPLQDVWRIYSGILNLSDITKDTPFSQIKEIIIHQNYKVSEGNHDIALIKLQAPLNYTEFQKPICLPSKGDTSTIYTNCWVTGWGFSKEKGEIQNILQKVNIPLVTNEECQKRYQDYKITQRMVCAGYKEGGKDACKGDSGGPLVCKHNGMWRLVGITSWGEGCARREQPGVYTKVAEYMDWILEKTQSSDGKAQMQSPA
Experimental: To analyze inhibition of plasma kallikrein in an ex vivo setting, the potency of compounds was measure in contact pathway-activated plasma assays. In a fluorogenic peptide substrate assay, test compounds dissolved in DMSO were added to sodium citrate collected human or rat plasma in a 96-well microplate. Alternatively, citrated plasma was collected from rats administered the compounds orally or by IV. 10 nM of human FXIIa (Enzyme Research Laboratories) diluted in PKa buffer (20 mM Tris-HCl, pH 7.5, 150 mM NaCl, 1 mM EDTA, 0.1% PEG-8000, and 0.1% Triton X-100) was added to the plasma, followed by the […] of the profluorescent, synthetic plasma kallikrein substrate PFR-AMC (also diluted in PKa buffer). Final plasma concentration in the reaction was 78%. Fluorescence was immediately monitored by excitation/emission wavelengths of 360 nm/480 nm respectively over a period of 5 minutes in a microplate reader. The resulting linear increase in fluorescence emission (reflecting PKa proteolysis of PFR-AMC substrate) was fit to extract a proteolytic rate (fluorescent units over time), and this rate was subsequently plotted against compound inhibitor concentration. Resulting plots were fit to a standard 4-parameter IC50/IC90 equation to determine min/max values, IC50/90, and slope. All experimental steps were performed at room temperature.

human activated kallikrein enzyme, sequence (P03952 391-638 limits assumed): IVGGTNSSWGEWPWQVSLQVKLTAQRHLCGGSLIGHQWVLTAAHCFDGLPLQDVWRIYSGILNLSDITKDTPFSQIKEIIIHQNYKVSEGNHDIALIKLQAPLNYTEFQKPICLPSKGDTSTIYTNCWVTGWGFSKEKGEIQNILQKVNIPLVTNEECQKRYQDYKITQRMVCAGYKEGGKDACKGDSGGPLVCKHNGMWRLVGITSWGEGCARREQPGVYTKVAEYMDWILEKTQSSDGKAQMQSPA
human activated kallikrein enzyme, sequence (P03952 20-390 partner limits assumed): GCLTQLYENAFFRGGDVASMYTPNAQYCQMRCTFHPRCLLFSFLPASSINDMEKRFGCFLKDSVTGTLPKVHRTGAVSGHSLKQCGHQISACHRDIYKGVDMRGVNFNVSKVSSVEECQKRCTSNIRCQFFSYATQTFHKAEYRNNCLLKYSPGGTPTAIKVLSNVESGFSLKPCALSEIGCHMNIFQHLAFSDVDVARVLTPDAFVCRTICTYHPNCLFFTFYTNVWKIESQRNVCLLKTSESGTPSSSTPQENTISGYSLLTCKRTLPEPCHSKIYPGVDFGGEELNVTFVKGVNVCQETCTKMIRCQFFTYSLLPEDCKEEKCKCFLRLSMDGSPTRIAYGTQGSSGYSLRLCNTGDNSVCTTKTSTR

Row | EC50 [1] | IC90 (plasma kallikrein) | Structure (SMILES)
1 | 0.001 to 0.01 µM | 1 to 5 µM | Cc1cc2c(N)nccc2c(C)c1CNc1nccnc1NCc1cn2cc(C3CC3)ccc2n1 [Example 240]
2 | 0.001 to 0.01 µM | > 5 µM | Cc1cc2c(N)nccc2c(C)c1CNc1cc(OCc2ccc3ncc(Cl)cc3c2)ncn1 [Example 373, 6-(((6-((3-chloroquinolin-6-yl)methoxy)pyrimidin-4-yl)amino)methyl)-5,7-dimethylisoquinolin-1-amine formic acid salt]
3 | < 0.001 µM | ≤ 1 µM | Cc1cc2c(N)nccc2c(C)c1CNc1cc(NCc2ccc(Cn3ccccc3=O)cc2)cnn1 [Example 236, 1-(4-(((6-(((1-amino-5,7-dimethylisoquinolin-6-yl)methyl)amino)pyridazin-4-yl)amino)methyl)benzyl)pyridin-2(1H)-one]
4 | < 0.001 µM | > 5 µM | Cc1cc2c(N)nccc2c(C)c1CNc1cc(OCc2cn3cc(C4CC4)cc(C#N)c3n2)ncn1 [Example 258, 2-(((6-(((1-amino-5,7-dimethylisoquinolin-6-yl)methyl)amino)pyrimidin-4-yl)oxy)methyl)-6-cyclopropylimidazo[1,2-a]pyridine-8-carbonitrile]
5 | < 0.001 µM | 1 to 5 µM | Cc1cc2c(N)nccc2c(C)c1CNc1cc(OCc2cn3cc(C4CC4)cc(C4(F)COC4)c3n2)ncn1 [Example 272, 6-(((6-((6-cyclopropyl-8-(3-fluorooxetan-3-yl)imidazo[1,2-a]pyridin-2-yl)methoxy)pyrimidin-4-yl)amino)methyl)-5,7-dimethylisoquinolin-1-amine]
6 | < 0.001 µM | 1 to 5 µM | Cc1cc2c(N)nccc2c(C)c1CNc1cc(NCc2cn3cc(C4CC4)ccc3n2)ncn1 [Example 331, N^4-((1-amino-5,7-dimethylisoquinolin-6-yl)methyl)-N^6-((6-cyclopropylimidazo[1,2-a]pyridin-2-yl)methyl)pyrimidine-4,6-diamine]
7 | < 0.001 µM | ≤ 1 µM | Cc1cc2c(N)nccc2c(C)c1CNc1cc(OCc2cc3cc(C4CC4)cc(N4CCOC4=O)n3n2)ncn1 [Example 256, 3-(2-(((6-(((1-amino-5,7-dimethylisoquinolin-6-yl)methyl)amino)pyrimidin-4-yl)oxy)methyl)-5-cyclopropylpyrazolo[1,5-a]pyridin-7-yl)oxazolidin-2-one]
8 | < 0.001 µM | ≤ 1 µM | Cc1cc2c(N)nccc2c(C)c1CNc1cc(OC(C)c2ccc(Cn3cccn3)cc2)cnn1 (single isomer, unassigned) [Example 276, (R*)-6-(((5-(1-(4-((1H-pyrazol-1-yl)methyl)phenyl)ethoxy)pyridazin-3-yl)amino)methyl)-5,7-dimethylisoquinolin-1-amine]
9 | < 0.001 µM | ≤ 1 µM | Cc1cc2c(N)nccc2c(C)c1CNC(=O)c1cnn(Cc2nc3ccc(C4CC4)cn3n2)c1 [Example I-482, N-((1-amino-5,7-dimethylisoquinolin-6-yl)methyl)-1-((6-cyclopropyl-[1,2,4]triazolo[1,5-a]pyridin-2-yl)methyl)-1H-pyrazole-4-carboxamide]
10 | < 0.001 µM | ≤ 1 µM | Cc1cc2c(N)nccc2c(C)c1CNc1cc2c(cn1)nnn2Cc1cn2cc(C3CC3)ccc2n1 [Example 501, 6-(((1-((6-cyclopropylimidazo[1,2-a]pyridin-2-yl)methyl)-1H-[1,2,3]triazolo[4,5-c]pyridin-6-yl)amino)methyl)-5,7-dimethylisoquinolin-1-amine]
11 | 0.001 to 0.01 µM | 1 to 5 µM | Cc1cc2c(N)nccc2c(C)c1CNc1cc2c(ccn2Cc2cc3cc(C4CC4)cnc3s2)cn1 [Example 283, 6-(((1-((5-cyclopropylthieno[2,3-b]pyridin-2-yl)methyl)-1H-pyrrolo[3,2-c]pyridin-6-yl)amino)methyl)-5,7-dimethylisoquinolin-1-amine]
12 | < 0.001 µM | ≤ 1 µM | Cc1cc2c(N)nccc2c(C)c1CNc1cc2c(cn1)ncn2Cc1nc2ccc(C3CC3)cn2n1 [Example 503, 6-(((1-((6-cyclopropyl-[1,2,4]triazolo[1,5-a]pyridin-2-yl)methyl)-1H-imidazo[4,5-c]pyridin-6-yl)amino)methyl)-5,7-dimethylisoquinolin-1-amine]
13 | < 0.001 µM | 1 to 5 µM | Cc1cc2c(N)nccc2c(C)c1CNc1cc(NCc2ccc(Cn3cccn3)cc2)c(C(F)(F)F)nn1 [Example 451, N^5-(4-((1H-pyrazol-1-yl)methyl)benzyl)-N^3-((1-amino-5,7-dimethylisoquinolin-6-yl)methyl)-6-(trifluoromethyl)pyridazine-3,5-diamine]
14 | < 0.001 µM | ≤ 1 µM | Cc1cc2c(N)nccc2c(C)c1CNC(=O)c1cnn(Cc2ccc3ncc(Cl)cc3c2)c1 [Example 89, N-((1-amino-5,7-dimethylisoquinolin-6-yl)methyl)-1-((3-chloroquinolin-6-yl)methyl)-1H-pyrazole-4-carboxamide]
15 | 0.001 to 0.01 µM | > 5 µM | Cc1c(CNc2cc(OCc3ccc(Cn4cccn4)cc3)ncn2)ccc2c(N)nccc12 [Example 533, 6-(((6-((4-((1H-pyrazol-1-yl)methyl)benzyl)oxy)pyrimidin-4-yl)amino)methyl)-5-methylisoquinolin-1-amine]
16 | 0.001 to 0.01 µM | > 5 µM | Cc1cc2c(N)nccc2c(C)c1CNc1ncncc1NCc1cn2cc(C3CC3)ccc2n1 [Example 288, N4-((1-amino-5,7-dimethylisoquinolin-6-yl)methyl)-N5-((6-cyclopropylimidazo[1,2-a]pyridin-2-yl)methyl)pyrimidine-4,5-diamine]
17 | < 0.001 µM | > 5 µM | Cc1c(CNc2cc(OCc3cn4cc(C5CC5)ccc4n3)ncn2)c(C2(C)CC2)cc2c(N)nccc12 [Example 390, 6-(((6-((6-cyclopropylimidazo[1,2-a]pyridin-2-yl)methoxy)pyrimidin-4-yl)amino)methyl)-5-methyl-7-(1-methylcyclopropyl)isoquinolin-1-amine]
18 | < 0.001 µM | ≤ 1 µM | Cc1cc2c(N)nccc2c(C)c1CNc1cc(NCc2cc3cc(C4CC4)cnc3s2)ncn1 [Example 243, N4-((1-amino-5,7-dimethylisoquinolin-6-yl)methyl)-N6-((5-cyclopropylthieno[2,3-b]pyridin-2-yl)methyl)pyrimidine-4,6-diamine]
19 | < 0.001 µM | > 5 µM | Cc1cc2c(N)nccc2c(C)c1CNc1cc(OCc2cc3cc(C4CC4)cc(CCC(=O)O)n3n2)ncn1 [Example 273, 3-(2-(((6-(((1-amino-5,7-dimethylisoquinolin-6-yl)methyl)amino)pyrimidin-4-yl)oxy)methyl)-5-cyclopropylpyrazolo[1,5-a]pyridin-7-yl)propanoic acid]
20 | 0.001 to 0.01 µM | 1 to 5 µM | Cc1cc2c(N)nccc2c(C)c1CNc1cc(OCc2cc(C(N)=O)c3ncc(Cl)cc3c2)ncn1 [Example 401, 6-(((6-(((1-amino-5,7-dimethylisoquinolin-6-yl)methyl)amino)pyrimidin-4-yl)oxy)methyl)-3-chloroquinoline-8-carboxamide]
21 | < 0.001 µM | ≤ 1 µM | Cc1cc2c(N)nccc2c(C)c1CNc1cc(OCc2cn3cc(C4CC4)cc(C4(O)COC4)c3n2)ncn1 [Example 250, 3-(2-(((6-(((1-amino-5,7-dimethylisoquinolin-6-yl)methyl)amino)pyrimidin-4-yl)oxy)methyl)-6-cyclopropylimidazo[1,2-a]pyridin-8-yl)oxetan-3-ol]
22 | 0.01 to 0.1 µM | > 5 µM | Cc1cc2c(N)nccc2c(C)c1CNc1cc(OCc2nc3ccc(C4CC4)nn3n2)ncn1 [Example 391, 6-(((6-((6-cyclopropyl-[1,2,4]triazolo[1,5-b]pyridazin-2-yl)methoxy)pyrimidin-4-yl)amino)methyl)-5,7-dimethylisoquinolin-1-amine]
23 | 0.001 to 0.01 µM | > 5 µM | Cc1cc2c(N)nccc2c(C)c1CNc1cc(OCc2cnc3ccc(C4CC4)cc3c2)ncn1 [Example 387, 6-(((6-((6-cyclopropylquinolin-3-yl)methoxy)pyrimidin-4-yl)amino)methyl)-5,7-dimethylisoquinolin-1-amine]
24 | < 0.001 µM | ≤ 1 µM | Cc1cnc2ccc(Cn3cc(C(=O)NCc4c(C)cc5c(N)nccc5c4C)cn3)cc2c1 [Example 115, N-((1-amino-5,7-dimethylisoquinolin-6-yl)methyl)-1-((3-methylquinolin-6-yl)methyl)-1H-pyrazole-4-carboxamide]
25 | < 0.001 µM | ≤ 1 µM | Cc1cc2c(N)nccc2c(C)c1CNc1nccc2nn(Cc3cn4cc(C5CC5)cnc4n3)cc12 [Example 392, 6-(((2-((6-cyclopropylimidazo[1,2-a]pyrimidin-2-yl)methyl)-2H-pyrazolo[4,3-c]pyridin-4-yl)amino)methyl)-5,7-dimethylisoquinolin-1-amine]

Source: patent US20260374754A1, “N-((ISOQUINOLIN-6-YL)METHYL)-1H-PYRAZOLE-4-CARBOXAMIDE DERIVATIVES AS PLASMA KALLIKREIN INHIBITORS FOR THE TREATMENT OF HEREDITARY ANGIODEMA” (Takeda Pharmaceutical Company Limited, priority 2022, published 2026)
